Data: patent publication US20240385198A1, “STING MODULATOR COMPOSITIONS AND METHODS OF USE AND DETECTION THEREOF” (University of South Florida, priority 2023, published 2024)
pKd: −log10 of the molar value. Read-outs that look alike come from different tables or passages of the source.

Key:
His-labeled STING = His-labeled STING (Homo sapiens, UniProt Q86WV6, H232R); test: Microscale thermophoresis (MST) analysis of STING modulators with 50 nM 2,3-cGAMP (Example 2); format: binding; settings: compounds incubated with 50 nM 2,3-cGAMP
Method: Nanotemper Monolith NT.115 labeled thermophoresis machine (NanoTemper Technologies GmbH, München, Germany) was used with standard treated capillary tubes using samples comprised of labeled protein and titrations of small molecule in 1×PBS. […] Detection of the protein was performed using the blue detection channel with LED excitation power set to 90% and MST set to high allowing 3 s prior to MST on to check for initial fluorescence differences, 25 s for thermophoresis, and 3 s for regeneration after MST off.
[…] Analysis was performed using M.O. Affinity Analysis Software with difference between initial fluorescence measured in the first 5 s as compared with thermophoresis at 15 s at 15 different analyte concentrations ranging from 100 zM to […] and exported into Graphpad Prism v.8 using a Log inhibitor v. response 4 parameter fit.
Microscale Thermophoresis (MST) was performed on compounds incubating with 50 nM 2,3-cGAMP. Confidence is categorized as follows: 1=low confidence (<2 MST shift unit-non-statistical); 2=mid confidence (2-3 MST shift units-intermediate); 3=high confidence ([…]-statistical). Dissociation constants are categorized as follows: A<1 pM; 1 pM≤B<100 pM; 100 pM≤C<10 μM; 10 μM≤D<100 μM.

[1] = system: STING R232 variant (human recombinant); test: MST competition assay of STING oligomerization with 2′,3′-cGAMP (Example 1); format: binding; settings: 100 nM STING, 50 nM 2′,3′-cGAMP; for EC50 interactions (high, mid, low affinity) from MST dose-response: 1:10 series dilution 100 mM to 100 zM, FIGS. 3A, 3B, 4; for Interaction with STING as a function of incubation time (dose-response curves): 15 min, 30 min, 45 min incubation, FIGS. 2A-2C
Description: Temperature Related Intensity Change (TRIC) is a biophysical technique that measures the strength of the interaction between two molecules by detecting a variation in the fluorescence signal of a fluorescently labeled or intrinsically fluorescent target as a result of an IR-laser induced temperature change. The extent of the temperature dependence is strongly related to the chemical environment of the fluorophore, which can be changed by the binding of a ligand to the target. Binding events below the picomolar level are difficult to detect because below this level, the ratio between target protein and analyte is too large for the detector to accurately measure movement. Herein describes a competition assay involving STING along with 2′,3′-cGAMP to detect analyte interaction with STING at sub-picomolar levels by measuring changes to oligomerization of STING.
The NanoTemper Pico instrument produces data in three separate phases: fluorescent count; normalized MST time-trace; and the change in normalized fluorescence (ΔFnorm) result. The fluorescent count is done to ensure that there is no difference between overall fluorescence between fractions, that there is enough fluorescent signal present for the detector to accurately give a reading, but not too much as to negatively affect migration during thermophoresis. It also gives indication if there is aggregation or adsorption within samples. The normalized MST time-trace gives an indication of the movement of molecules by thermophoresis within the detector sight picture over a period of time (T−Jump). The final graph is a ΔFnorm readout which is mathematically determined using the formula:
ΔFnorm=Fhot/Fcold • whereas Fhot equals an area designated by the analyst, located within the T−Jump area and Fcold equals the area within the initial fluorescence area just before the infrared (IR) laser heats the capillary tube.
STING R232 variant (human recombinant) protein was solubilized at 200 nM in HBS-P (0.01M HEPES pH 7.4, 0.15 NaCl, 0.005% v/v surfactant P20) along with 100 nM 2′,3′-cGAMP. 100 nM of NTAAtto 488 dye (blue; nitrilotriacetic acid complexed to Ni^2+) was added and incubated for 1 hour at room temperature covered from light. The resulting mixture was centrifuged at 12,000×RPM for 10 minutes prior to use. A 1:10 series dilution from 200 mM to 200 zM was created using HBS-P with 1% DMSO. The dyed STING/2′,3′-cGAMP mixture was added to each sample in a 1:1 ratio, resulting in a static 100 nM STING, 50 nM 2′,3′-cGAMP, and a concentration range from 100 mM to 100zM. Samples were incubated for 15-minutes prior to load into Monolith NT.115 capillaries and ran on dianthus NT.23 NanoTemper Pico instrument (NanoTemper Technologies GmbH, München, Germany). Samples were run again at 30- and 45-minutes.

[2] = read-out: Dissociation Constant
[3] = first of two binding events, read-out: Dissociation Constant Kd1
[4] = second of two binding events, read-out: Dissociation Constant Kd2

His-labeled STING, sequence (Q86WV6 138-379 H232R): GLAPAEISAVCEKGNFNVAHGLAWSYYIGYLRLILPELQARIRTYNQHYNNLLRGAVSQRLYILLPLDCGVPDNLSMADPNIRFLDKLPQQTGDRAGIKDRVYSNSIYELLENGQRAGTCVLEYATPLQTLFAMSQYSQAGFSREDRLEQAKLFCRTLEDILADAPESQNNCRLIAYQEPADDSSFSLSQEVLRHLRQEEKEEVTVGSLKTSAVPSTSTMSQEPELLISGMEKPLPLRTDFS

Row | SMILES | Confidence (MST shift units) (His-labeled STING) | pKd (His-labeled STING; [2]) | further results
1 | Cc1c(Cl)cccc1Nc1ncccc1COCC(O)CO (stereo not drawn) [Compound 1] | 1 (1=low confidence (<2 MST shift unit-non-statistical)) | 10.00 to 12.00 | 
2 | Cc1c(Cl)cccc1Nc1ncccc1CO [Compound 4] | 2 (2=mid confidence (2-3 MST shift units-intermediate)) | > 12.00 | 
3 | COC(=O)c1cccnc1Nc1cccc(Cl)c1C [Compound 9] | 3 (3=high confidence (>2 MST shift units-statistical)) |  | pKd (His-labeled STING; [3]): 5.00 to 10.00; pKd (His-labeled STING; [4]): > 12.00
4 | CCOC(=O)c1cccnc1Nc1cccc(Cl)c1C [Compound 10] | 1 (1=low confidence (<2 MST shift unit-non-statistical)) |  | Dissociation Constant (His-labeled STING): Low R2
5 | CCCOC(=O)c1cccnc1Nc1cccc(Cl)c1C [Compound 11] | 1 (1=low confidence (<2 MST shift unit-non-statistical)) |  | pKd (His-labeled STING; [3]): 5.00 to 10.00; pKd (His-labeled STING; [4]): > 12.00
6 | C#CCOC(=O)c1cccnc1Nc1cccc(Cl)c1C [Compound 13] | 2 (2=mid confidence (2-3 MST shift units-intermediate)) | 4.00 to 5.00 | 
7 | CNC(=O)c1cccnc1Nc1cccc(Cl)c1C [Compound 14] | 2 (2=mid confidence (2-3 MST shift units-intermediate)) | 5.00 to 10.00 | 
8 | CCNC(=O)c1cccnc1Nc1cccc(Cl)c1C [Compound 15] | 1 (1=low confidence (<2 MST shift unit-non-statistical)) | 5.00 to 10.00 | 
9 | CCCNC(=O)c1cccnc1Nc1cccc(Cl)c1C [Compound 16] | 2 (2=mid confidence (2-3 MST shift units-intermediate)) | 5.00 to 10.00 | 
10 | C=CCNC(=O)c1cccnc1Nc1cccc(Cl)c1C [Compound 17] | 1 (1=low confidence (<2 MST shift unit-non-statistical)) | 5.00 to 10.00 | 
11 | Cc1c(Cl)cccc1Nc1ncccc1C(=O)OCC(O)CO (stereo not drawn) [Compound 19] | 1 (1=low confidence (<2 MST shift unit-non-statistical)) | > 12.00 | 
12 | CCCCC(=O)c1cccnc1Nc1cccc(Cl)c1C [Compound 21] | 2 (2=mid confidence (2-3 MST shift units-intermediate)) | 5.00 to 10.00 | 
13 | Cc1c(Br)cccc1Nc1ncccc1C(=O)O [Compound 23] | 3 (3=high confidence (>2 MST shift units-statistical)) | 4.00 to 5.00 | 
14 | COC(=O)c1cccnc1Nc1cccc(Br)c1C [Compound 24] | 1 (1=low confidence (<2 MST shift unit-non-statistical)) | 10.00 to 12.00 | 
15 | Cc1c(Br)cccc1Nc1ncccc1C(=O)OCC(O)CO (stereo not drawn) [Compound 26] |  | > 12.00 | 
16 | Cc1c(Nc2ncccc2C(=O)O)cccc1C(F)(F)F [Compound 27] | 3 (3=high confidence (>2 MST shift units-statistical)) | 5.00 to 10.00 | 
17 | Cc1c(Nc2ncccc2C(=O)OCC(O)CO)cccc1C(F)(F)F (stereo not drawn) [Compound 29] |  | > 12.00 | 
18 | COC(=O)c1cccnc1Nc1cccc(C(F)(F)F)c1C [Compound 30] |  | 10.00 to 12.00 | 

Row | SMILES | Confidence (MST shift units) (His-labeled STING) | pKd (His-labeled STING; [2]) | further results
19 | Cc1c(Cl)cccc1Nc1ccccc1C(=O)O [Compound 36] | 1 (1=low confidence (<2 MST shift unit-non-statistical)) |  | Dissociation Constant (His-labeled STING): No Binding
20 | Cc1c(Cl)cccc1Nc1ccccc1C(=O)OCC(O)CO (stereo not drawn) [Compound 38] | 1 (1=low confidence (<2 MST shift unit-non-statistical)) |  | pKd (His-labeled STING; [3]): 5.00 to 10.00; pKd (His-labeled STING; [4]): > 12.00
21 | Cc1c(Cl)cccc1Nc1ncccc1CN [Compound 40] |  |  | pKd (His-labeled STING; [3]): 5.00 to 10.00; pKd (His-labeled STING; [4]): > 12.00
22 | Cc1c(Cl)cccc1Nc1ncccc1C(=O)OCCCOC(=O)c1cccnc1Nc1cccc(Cl)c1C [Compound 41] | 1 (1=low confidence (<2 MST shift unit-non-statistical)) | 5.00 to 10.00 | 
23 | CCC(COC(=O)c1cccnc1Nc1cccc(Br)c1C)OC (stereo not drawn) [Compound 42] | 2 (2=mid confidence (2-3 MST shift units-intermediate)) |  | 
24 | CCC(COC(=O)c1cccnc1Nc1cccc(C)c1C)OC (stereo not drawn) [Compound 43] | 1 (1=low confidence (<2 MST shift unit-non-statistical)) |  | 
25 | COC(=O)c1cccnc1Nc1cccc(F)c1C [Compound 44] | 1 (1=low confidence (<2 MST shift unit-non-statistical)) | 10.00 to 12.00 | 
26 | Cc1cccc(Nc2ccccc2C(=O)O)c1C [Compound 45] | 1 (1=low confidence (<2 MST shift unit-non-statistical)) |  | Dissociation Constant (His-labeled STING): No Binding
27 | CCC(COC(=O)c1ccccc1Nc1cccc(C)c1C)OC (stereo not drawn) [Compound 46] | 1 (1=low confidence (<2 MST shift unit-non-statistical)) |  | 
28 | Cc1cccc(Nc2ncccc2C(=O)O)c1C [Compound 47] | 1 (1=low confidence (<2 MST shift unit-non-statistical)) |  | Dissociation Constant (His-labeled STING): No Binding
29 | Cc1cccc(Nc2ncccc2C(=O)OCC(O)CO)c1C (stereo not drawn) [Compound 48] | 1 (1=low confidence (<2 MST shift unit-non-statistical)) |  | Dissociation Constant (His-labeled STING): No Binding
30 | Cc1c(Cl)cccc1Nc1ncccc1C(=O)OCCCCOC(=O)c1cccnc1Nc1cccc(Cl)c1C [Compound 49] | 1 (1=low confidence (<2 MST shift unit-non-statistical)) | 10.00 to 12.00 | 
31 | Cc1c(Cl)cccc1Nc1ncccc1C(=O)OCCCCCOC(=O)c1cccnc1Nc1cccc(Cl)c1C [Compound 50] | 3 (3=high confidence (>2 MST shift units-statistical)) | 5.00 to 10.00 | 
32 | NC(=O)NC1NC(=O)NC1=O (stereo not drawn) [Compound 52] | 3 (3=high confidence (>2 MST shift units-statistical)) |  | pKd (His-labeled STING; [3]): 5.00 to 10.00; pKd (His-labeled STING; [4]): > 12.00
33 | COC(=O)c1cccnc1Nc1cccc(Cl)c1C [Formula (I)] |  |  | EC50 interactions (high, mid, low affinity) from MST dose-response [1]: several nonlinear regression curves
34 | C#CCOC(=O)c1cccnc1Nc1cccc(Cl)c1C [Formula (II)] |  |  | EC50 interactions (high, mid, low affinity) from MST dose-response [1]: only a low affinity EC50
35 | CNC(=O)c1cccnc1Nc1cccc(Cl)c1C [Formula (III)] |  |  | Interaction with STING as a function of incubation time (dose-response curves) [1]: relatively slow interaction
36 | CNCc1cccnc1Nc1cccc(Cl)c1C [Formula (IV)] |  |  | Interaction with STING as a function of incubation time (dose-response curves) [1]: relatively rapid interaction with STING that was not maintained
